Entries after “also recorded” stand apart in the source; their conditions may differ. Marks after values point to notes of the source that are not given here.
Assays:
[1] = test system: MDA-MB-231 (FR+); assay: In vitro activity, 3H-thymidine incorporation, MDA-MB-231; assay type: cell-based, Human
Protocol: (§1) METHOD. In vitro activity against various cancer cell lines. IC50 values are generated for various cell lines. Cells are heavily seeded in 24-well Falcon plates and allowed to form nearly confluent monolayers overnight. Thirty minutes prior to the addition of the test compound, spent medium is aspirated from all wells and replaced with fresh folate-deficient RPMI medium (FFRPMI). A subset of wells are designated to receive media containing 100 μM folic acid. The cells in the designated wells are used to determine the targeting specificity. Without being bound by theory it is believed herein that the cytotoxic activity produced by test compounds in the presence of excess folic acid, i.e. where there is competition for FR binding, corresponds to the portion of the total activity that is unrelated to FR-specific delivery. Following one rinse with 1 mL of fresh FFRPMI containing 10% heat-inactivated fetal calf serum, each well receives 1 mL of medium containing increasing concentrations of test compound (4 wells per sample) in the presence or absence of 100 μM free folic acid as indicated. […] A 450 μL aliquot of each solubilized sample is transferred to a scintillation vial containing 3 mL of Ecolume scintillation cocktail and then counted in a liquid scintillation counter. Final results are expressed as the percentage of ^3H-thymidine incorporation relative to untreated controls.

[2] = test system: KB cells (FR+); assay type: cell-based, Human
Protocol: METHOD. Inhibition of Cellular DNA Synthesis. The compounds described herein are evaluated using an in vitro cytotoxicity assay that predicts the ability of the drug to inhibit the growth of folate receptor-positive cells, such as KB cells, RAW264.7 macrophages, and the like. It is to be understood that the choice of cell type can made on the basis of the susceptibility of those selected cells to the drug that forms the conjugate. The test compounds are comprised of folate linked to a respective chemotherapeutic drug, as prepared according to the processes described herein. The test cells are exposed to varying concentrations of folate-drug conjugate, and also in the absence or presence of at least a 100-fold excess of folic acid to assess activity as being specific to folate receptor mediation.
EXAMPLE. Conjugates of cytotoxic drugs described herein are active against KB cells. The activity is mediated by the folate receptor as indicated by competition experiments using co-administered folic acid. KB cells are exposed for up to 7 h at 37° C. to the indicated concentrations of folate-drug conjugate in the absence or presence of at least a 100-fold excess of folic acid. The cells are then rinsed once with fresh culture medium and incubated in fresh culture medium for 72 hours at 37° C. Cell viability was assessed using a ^3H-thymidine incorporation assay.
METHOD. In vitro activity against various cancer cell lines. IC50 values are generated for various cell lines. Cells are heavily seeded in 24-well Falcon plates and allowed to form nearly confluent monolayers overnight. Thirty minutes prior to the addition of the test compound, spent medium is aspirated from all wells and replaced with fresh folate-deficient RPMI medium (FFRPMI). A subset of wells are designated to receive media containing 100 μM folic acid. The cells in the designated wells are used to determine the targeting specificity. Without being bound by theory it is believed herein that the cytotoxic activity produced by test compounds in the presence of excess folic acid, i.e. where there is competition for FR binding, corresponds to the portion of the total activity that is unrelated to FR-specific delivery. Following one rinse with 1 mL of fresh FFRPMI containing 10% heat-inactivated fetal calf serum, each well receives 1 mL of medium containing increasing concentrations of test compound (4 wells per sample) in the presence or absence of 100 μM free folic acid as indicated. Treated cells are pulsed for 2 h at 37° C., rinsed 4 times with 0.5 mL of media, and then chased in 1 mL of fresh medium up to 70 h. Spent medium is aspirated from all wells and replaced with fresh medium containing 5 μCi/mL ^3H-thymidine. Following a further 2 h 37° C. incubation, cells are washed 3 times with 0.5 mL of PBS and then treated with 0.5 mL of ice-cold 5% trichloroacetic acid per well. After 15 min, the trichloroacetic acid is aspirated and the cell material solubilized by the addition of 0.5 mL of 0.25 N sodium hydroxide for 15 min. A 450 μL aliquot of each solubilized sample is transferred to a scintillation vial containing 3 mL of Ecolume scintillation cocktail and then counted in a liquid scintillation counter. Final results are expressed as the percentage of ^3H-thymidine incorporation relative to untreated controls.

[3] = test system: KB-CR2000 (cisplatin resistant) tumors; assay: Cisplatin-resistant KB-CR2000 tumor model; assay type: in vivo, mice
[4] = test system: HepG2 (FR-); assay: In vitro activity, 3H-thymidine incorporation, HepG2; assay type: cell-based, Human; details: evaluated from 0.1-100 nM
Protocol: as §1

[5] = test system: H23 (FR-); assay: In vitro activity, 3H-thymidine incorporation, H23; assay type: cell-based, Human; details: evaluated from 0.1-100 nM
Protocol: as §1

[6] = test system: AN3CA (FR-); assay: In vitro activity, 3H-thymidine incorporation, AN3CA; assay type: cell-based, Human; details: evaluated from 0.1-100 nM
Protocol: as §1

[7] = test system: A549 (FR-); assay: In vitro activity, 3H-thymidine incorporation, A549; assay type: cell-based, Human; details: evaluated from 0.1-100 nM
Protocol: as §1

[8] = test system: NC1/ADR-RES-Cl2 (FR+); assay: In vitro activity, 3H-thymidine incorporation, NC1/ADR-RES-Cl2; assay type: cell-based, Human
Protocol: as §1

[9] = test system: MDA-MB-231 tumors; assay: TNBC tumor assay, s.c. MDA-MB-231 xenografts; assay type: in vivo, nu/nu mice; details: 2 μmol/kg i.v. TIW, 2 weeks
Text: METHOD. TNBC Tumor Assay. Triple negative breast cancer (TNBC) is a subtype characterized by lack of gene expression for estrogen, progesterone and Her2/neu. TNBC is difficult to treat, and the resulting death rate in patients is reportedly disproportionately higher than for any other subtype of breast cancer. A TNBC xenograft model was generated in an analogous way to the KB and M109 models described herein by implanting MDA-MB-231 breast cancer cells in nu/nu mice. Dosing is initiated when the s.c. tumors have an average volume between 110-150 (generally 130) mm^3 (t0), typically 17 days post tumor inoculation (PTI).
EXAMPLE. […] Without being bound by theory, it is believed herein that the test animals were cured of the triple negative breast cancer.

[10] = Maximum tolerated dose (MTD); design: species or system Sprague-Dawley rats; details: rat, in vivo
Protocol: EXAMPLE. Maximum tolerated dose (MTD). […] Test compounds are administered by i.v., BIW, 2 wks in female Sprague-Dawley rats. Comparator compound EC0531 has a MTD of 0.33 μmol/kg, while EC1456 has a MTD of at least 0.51 μmol/kg, a […], as shown in FIG. 20. Histopathologic changes were not observed with doses of EC1456 at or below the MTD.

[11] = test system: KB tumors; assay: Inhibition of tumor growth, s.c. KB tumors in nu/nu mice; assay type: in vivo; design: key to In vivo activity (e): CR = complete response, where tumor volume, as defined herein, during the observation period was zero for all test animals in the group; details: for CR: 2 weeks
Protocol: METHOD. Inhibition of Tumor Growth in Mice. […] For tumor cell inoculation, 1×10^6 M109 cells (a syngeneic lung carcinoma) in Balb/c strain, or 1×10^6 KB cells in nu/nu strain, in 100 μL are injected in the subcutis of the dorsal medial area (right axilla).
METHOD. Toxicity as Measured by Weight Loss. The percentage weight change of the test animals is determined on selected days post-tumor inoculation (PTI), and during dosing. The results are graphed.

[12] = test system: IGROV1 (FR+); assay: In vitro activity, 3H-thymidine incorporation, IGROV1; assay type: cell-based, Human
Protocol: as §1

[13] = target: T1, folate receptors (FRs) on KB cells (Homo sapiens, UniProt P15328); assay: Relative affinity assay (3H-folic acid competition) on KB cells; assay type: binding; details: folic acid = 1; in 10% serum/FDRPMI
T1 construct: FR-positive KB cells are heavily seeded into 24-well cell culture plates; endogenous in cells; host or cells: KB cells
T1 sequence (P15328 25-234): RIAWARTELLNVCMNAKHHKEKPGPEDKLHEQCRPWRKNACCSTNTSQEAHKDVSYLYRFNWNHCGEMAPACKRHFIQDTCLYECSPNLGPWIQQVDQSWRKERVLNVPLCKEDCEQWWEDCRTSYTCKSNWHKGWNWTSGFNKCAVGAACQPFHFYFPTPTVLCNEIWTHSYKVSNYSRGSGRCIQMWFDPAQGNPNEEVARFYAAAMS
Protocol: METHOD. Relative Affinity Assay. The affinity for folate receptors (FRs) relative to folate is determined according to a previously described method (Westerhof, G. R., J. H. Schornagel, et al. (1995) Mol. Pharm. 48: 459-471) with slight modification. Briefly, FR-positive KB cells are heavily seeded into 24-well cell culture plates and allowed to adhere to the plastic for 18 h. Spent incubation media is replaced in designated wells with folate-free RPMI (FFRPMI) supplemented with 100 nM ^3H-folic acid in the absence and presence of increasing concentrations of test article or folic acid. Cells are incubated for 60 min at 37° C. and then rinsed 3 times with PBS, pH 7.4. Five hundred microliters of 1% SDS in PBS, pH 7.4, is added per well. Cell lysates are then collected and added to individual vials containing 5 mL of scintillation cocktail, and then counted for radioactivity. Negative control tubes contain only the ^3H-folic acid in FFRPMI (no competitor). Positive control tubes contain a final concentration of 1 mM folic acid, and CPMs measured in these samples (representing non-specific binding of label) are subtracted from all samples.

CCCC(=O)OCN(C(=O)[C@@H](NC(=O)[C@H]1CCCCN1C)C(C)CC)C(C[C@@H](OC(C)=O)c1nc(C(=O)N[C@@H](Cc2ccc(O)cc2)C[C@H](C)C(=O)NNC(=O)OCCSSC[C@@H](NC(=O)[C@H](CCC(=O)NC[C@H](O)[C@@H](O)[C@H](O)[C@H](O)CO)NC(=O)[C@@H](CCC(=O)O)NC(=O)[C@H](CCC(=O)NC[C@H](O)[C@@H](O)[C@H](O)[C@H](O)CO)NC(=O)[C@@H](CCC(=O)O)NC(=O)[C@H](CCC(=O)NC[C@H](O)[C@@H](O)[C@H](O)[C@H](O)CO)NC(=O)CC[C@@H](NC(=O)c2ccc(NCc3cnc4nc(N)[nH]c(=O)c4n3)cc2)C(=O)O)C(=O)O)cs1)C(C)C (stereo partly drawn) [EC1456]
Competable up to 100 nM [1]: Yes
improvement in specificity compared to comparator EC0531 [2]: 4 fold
In vitro specificity (fold) (d) ([2]; IC50 competed group vs non-competed group): 944 fold
specificity for the folate receptor by folic acid competition ([2]; IC50 competed vs non-competed group): ca. 1000 fold
Competable up to 100 nM ([2]; KB): Yes
CRs (test animals) ([3]; 2 μmol/kg i.v. TIW, 2 weeks): 5/5
regrowth of the tumor (test animals) ([3]; 2 μmol/kg i.v. TIW, 2 weeks): 1/5
weight loss / host animal toxicity ([3]; 2 μmol/kg i.v. TIW, 2 weeks): did not exhibit significant host animal toxicity; also recorded: did not cause any weight loss
test animals cured (no regrowth) ([3]; nearly 70 day observation period): 4/5
Activity (IC50) [4]: Inactive
Activity (IC50) [5]: Inactive
Activity (IC50) [6]: Inactive
Activity (IC50) [7]: Inactive (a)
Competable up to 100 nM [8]: Yes
weight loss / gross whole animal toxicity [9]: did not cause gross whole animal toxicity; also recorded: not accompanied by significant weight loss
complete responses (test animals) ([9]; observation nearly 135 days): 4 of 5
improvement in MTD over EC0531 [10]: 65%
MTD at 2 weeks ([10]; iv, BIW, 2 wks, female Sprague-Dawley rats): ≥ 0.51 µmol/kg
Toxicity: Avg. Weight Loss ([11]; 0.5 μmol/kg, TIW, 3 weeks, untreated control 2.4%): <5%*
whole animal toxicity (body weight) ([11]; 1 μmol/kg TIW, 2 wk): did not result in any observable whole animal toxicity; also recorded: does not show any evidence of whole animal toxicity
complete response (test animals) ([11]; 1 μmol/kg i.v. TIW, 2 wk): 4/4
CR ([11]; 1.0 μmol/kg, TIW): 60%
CR ([11]; 2.0 μmol/kg, TIW): 100%
activity competable with excess EC0923 ([11]; EC0923 50 or 100 μmol/kg co-dosed): competable
In vivo activity (e) ([11]; subcutaneous KB tumor in nu/nu mice): CR
Competable up to 100 nM [12]: Yes
Relative Affinity (a) compared to folic acid [13]: 0.27

From patent US20200121801A1, “DRUG DELIVERY CONJUGATES CONTAINING UNNATURAL AMINO ACIDS AND METHODS FOR USING” (priority 2012, published 2020)
